{"source": "patent US20130065818A1", "about": "“Arylamide Compounds And Compositions And Uses Thereof” (POLYMEDIX, priority 2006, published 2013)", "key": {"E. coli D31": {"system": "E. coli D31", "experiment": "MIC, control bacteria (Example 8)", "assay_type": "cell-based", "experimental": "• Mueller-Hinton Broth in tubes was inoculated with 25 ocular isolates of Staphylococcus aureus fluoroquinolone-susceptible, Staphylococcus aureus fluoroquinolone-resistant, Staphylococcus epidermidis (Coagulase-negative Staphylococcus) fluoroquinolone-susceptible, Staphylococcus epidermidis (Coagulase-negative Staphylococcus) fluoroquinolone-resistant, Pseudomonas aeruginosa and Serratia marcescens, plus two controls (Staphylococcus aureus and E. coli) and incubated at 37° C. overnight on a shaker set at 250 rpm.\nControl Bacteria—The two control bacteria (Staphylococcus aureus and E. coli) were treated as above.\nControl Bacteria Set #1—this set of control bacteria were treated as the Streptococcus pneumoniae, Streptococcus viridans and Moraxella species (including Moraxella catarrhalis) test isolates above; the control bacteria underwent the same conditions as the test Streptococcus pneumoniae, Streptococcus viridans and Moraxella species (including Moraxella catarrhalis) isolates. This set of control bacteria was to determine whether there was a difference in the MICs by performing the MIC determinations in 2% lysed horse red blood cells with the standard method performed in Mueller-Hinton broth.\nControl Bacteria Set #2—the control bacteria were added to 5 ml of Mueller-Hinton Broth without the 2% lysed horse red blood cells to achieve the standard inoculum concentration. This set of control bacteria is the normal control to determine whether the compounds are at the target MICs.\nControl Bacteria Set #1—this set of control bacteria were treated as the Haemophilus influenzae test isolates above; the control bacteria underwent the same conditions as the test Haemophilus influenzae isolates. This set of control bacteria is to determine whether there was a difference in the MICs by performing the MIC determinations in HTM broth with the standard method performed in Mueller-Hinton broth.\nControl Bacteria Set #2—the control bacteria were added to 5 ml of Mueller-Hinton Broth to achieve the standard inoculum concentration. This set of control bacteria is the normal control to determine whether the compounds are at the target MICs.\nNinety μl of the bacterial suspensions was dispensed in each well from column 1 to column 12. Each bacterial isolate was placed in one row of a 96 well polypropylene plate containing the test agents. The plates were placed on shaker at 15 minutes at room temperature, and then incubated at 37° C. overnight. MICs were determined visually as the lowest concentration of drug that inhibits visible bacterial growth."}, "E. faecalis ATCC 29212": {"system": "E. faecalis ATCC 29212", "experiment": "MIC, laboratory strains (Example 8)", "assay_type": "cell-based"}}, "note": "Read-outs that look alike come from different tables or passages of the source.", "data": [{"molecule": "N=C(N)NCCCCC(=O)Nc1cc(C(F)(F)F)cc(NC(=O)c2cc(C(=O)Nc3cc(C(F)(F)F)cc(NC(=O)CCCCNC(=N)N)c3O[C@@H]3CCNC3)ncn2)c1O[C@@H]1CCNC1", "note": "[Oligomer 4]", "values": [{"measurement": "Decrease of activity by addition of 2% lysed horse red blood cells to Mueller-Hinton broth", "setting": "E. coli D31; Control Bacteria E. coli D31", "value": "approximately 4 fold"}, {"measurement": "Decrease of activity by use of HTM broth", "setting": "E. coli D31; Control Bacteria E. coli D31", "value": "approximately 8 fold"}, {"measurement": "MIC", "setting": "E. coli D31; Control Bacteria Set #1, run with Haemophilus influenzae MIC test, read-out: MIC", "value": 8, "unit": "µg/mL"}, {"measurement": "MIC", "setting": "E. coli D31; E. coli D31, Control for MIC Test SA-FQR, first batch", "value": 1, "unit": "µg/mL"}, {"measurement": "MIC", "setting": "E. coli D31; E. coli D31, Control for MIC Test SA-FQS, first batch", "value": 1, "unit": "µg/mL"}, {"measurement": "MIC", "setting": "E. coli D31; E. coli D31, new batches, Control Only 1", "value": 1, "unit": "µg/mL"}, {"measurement": "MIC", "setting": "E. coli D31; E. coli D31, new batches, Control Only 2", "value": 1, "unit": "µg/mL"}, {"measurement": "MIC", "setting": "E. coli D31; E. coli D31, new batches, Control Only 3", "value": 1, "unit": "µg/mL"}, {"measurement": "MIC", "setting": "E. coli D31; E. coli D31, new batches, Control Only 4", "value": 1, "unit": "µg/mL"}, {"measurement": "MIC", "setting": "E. coli D31; E. coli Lab Strain D31", "value": 0.78, "unit": "µg/mL"}, {"measurement": "MIC", "setting": "E. coli D31; Escherichia coli, D31, Control Bacteria Set #1, run with Moraxella MIC test, read-out: MIC", "value": 4, "unit": "µg/mL"}, {"measurement": "MIC", "setting": "E. coli D31; Escherichia coli, D31, Control Only 1, read-out: MIC of control bacteria on day of MIC testing", "value": 1, "unit": "µg/mL"}, {"measurement": "MIC", "setting": "E. coli D31; Escherichia coli, D31, Control Only 2, read-out: MIC of control bacteria on day of MIC testing", "value": 1, "unit": "µg/mL"}, {"measurement": "MIC", "setting": "E. coli D31; Escherichia coli, D31, Control Only 3, read-out: MIC of control bacteria on day of MIC testing", "value": 1, "unit": "µg/mL"}, {"measurement": "MIC", "setting": "E. coli D31; Escherichia coli, D31, Control Only 4, read-out: MIC of control bacteria on day of MIC testing", "value": 1, "unit": "µg/mL"}, {"measurement": "MIC", "setting": "E. coli D31; Escherichia coli, D31, E. coli D31, Control Bacteria Set #1 (same conditions as test isolates), run with Streptococcus pneumoniae MIC test, read-out: MIC", "value": 2, "unit": "µg/mL"}, {"measurement": "MIC", "setting": "E. coli D31; Escherichia coli, D31, E. coli D31, Control Bacteria Set #1 (same conditions as test isolates), run with Streptococcus viridans group MIC test, read-out: MIC", "value": 2, "unit": "µg/mL"}, {"measurement": "MIC", "setting": "E. coli D31; Escherichia coli, D31, E. coli D31, Control Bacteria Set #2 (Mueller-Hinton Broth), run with Streptococcus pneumoniae MIC test, read-out: MIC", "value": 0.5, "unit": "µg/mL"}, {"measurement": "MIC", "setting": "E. coli D31; Escherichia coli, D31, E. coli D31, Control Bacteria Set #2 (Mueller-Hinton Broth), run with Streptococcus viridans group MIC test, read-out: MIC", "value": 0.5, "unit": "µg/mL"}, {"measurement": "MIC", "setting": "E. coli D31; Escherichia coli, D31, E. coli D31, control bacteria run with Pseudomonas aeruginosa MIC test, read-out: MIC", "value": 0.5, "unit": "µg/mL"}, {"measurement": "MIC", "setting": "E. coli D31; Escherichia coli, D31, E. coli D31, control bacteria run with S. aureus fluoroquinolone-resistant MIC test, read-out: MIC", "value": 1, "unit": "µg/mL"}, {"measurement": "MIC", "setting": "E. coli D31; Escherichia coli, D31, E. coli D31, control bacteria run with S. aureus fluoroquinolone-susceptible MIC test, read-out: MIC", "value": 1, "unit": "µg/mL"}, {"measurement": "MIC", "setting": "E. coli D31; Escherichia coli, D31, E. coli D31, control bacteria run with S. epidermidis fluoroquinolone-resistant MIC test, read-out: MIC", "value": 1, "unit": "µg/mL"}, {"measurement": "MIC", "setting": "E. coli D31; Escherichia coli, D31, E. coli D31, control bacteria run with S. epidermidis fluoroquinolone-susceptible MIC test, read-out: MIC", "value": 1, "unit": "µg/mL"}, {"measurement": "MIC", "setting": "E. coli D31; Escherichia coli, D31, E. coli D31, control bacteria run with Serratia marcescens MIC test, read-out: MIC", "value": 0.5, "unit": "µg/mL"}, {"measurement": "MIC", "setting": "E. coli D31; Escherichia coli, D31, E. coli D31, MIC previously obtained (target MIC), printed in parentheses, read-out: MIC for Control Bacteria within the parentheses", "value": 0.78, "unit": "µg/mL"}, {"measurement": "MIC", "setting": "E. coli D31; Escherichia coli, D31, E. coli D31, read-out: MIC", "value": 0.78, "unit": "µg/mL"}, {"measurement": "MIC", "setting": "E. coli D31; Escherichia coli, D31, control for MIC test HI (Control Bacteria Set #2), read-out: MIC of control bacteria on day of MIC testing", "value": 1, "unit": "µg/mL"}, {"measurement": "MIC", "setting": "E. coli D31; Escherichia coli, D31, control for MIC test MS (Control Bacteria Set #2), read-out: MIC of control bacteria on day of MIC testing", "value": 1, "unit": "µg/mL"}, {"measurement": "MIC", "setting": "E. coli D31; Escherichia coli, D31, control for MIC test PA, read-out: MIC of control bacteria on day of MIC testing", "value": 0.5, "unit": "µg/mL"}, {"measurement": "MIC", "setting": "E. coli D31; Escherichia coli, D31, control for MIC test SA-FQR, read-out: MIC of control bacteria on day of MIC testing", "value": 1, "unit": "µg/mL"}, {"measurement": "MIC", "setting": "E. coli D31; Escherichia coli, D31, control for MIC test SA-FQS, read-out: MIC of control bacteria on day of MIC testing", "value": 1, "unit": "µg/mL"}, {"measurement": "MIC", "setting": "E. coli D31; Escherichia coli, D31, control for MIC test SE-FQR, read-out: MIC of control bacteria on day of MIC testing", "value": 1, "unit": "µg/mL"}, {"measurement": "MIC", "setting": "E. coli D31; Escherichia coli, D31, control for MIC test SE-FQS, read-out: MIC of control bacteria on day of MIC testing", "value": 1, "unit": "µg/mL"}, {"measurement": "MIC", "setting": "E. coli D31; Escherichia coli, D31, control for MIC test SM, read-out: MIC of control bacteria on day of MIC testing", "value": 0.5, "unit": "µg/mL"}, {"measurement": "MIC", "setting": "E. coli D31; Escherichia coli, D31, control for MIC test SP, read-out: MIC of control bacteria on day of MIC testing", "value": 0.5, "unit": "µg/mL"}, {"measurement": "MIC", "setting": "E. coli D31; Escherichia coli, D31, control for MIC test SV, read-out: MIC of control bacteria on day of MIC testing", "value": 0.5, "unit": "µg/mL"}, {"measurement": "MIC", "setting": "E. coli D31; Escherichia coli, D31, reference MIC printed in parentheses beside the day's control value, read-out: MIC for Control Bacteria (within the parentheses)", "value": 0.78, "unit": "µg/mL"}, {"measurement": "MIC", "setting": "E. faecalis ATCC 29212", "value": 0.78, "unit": "µg/mL"}]}]}
